Target: human APJ receptor (Homo sapiens (Human), UniProt P35414)
Assay: [35S]GTPγS binding assay on membranes from CHO cells stably expressing human APJ receptor
Assay type: biochemical
Settings: read-out: Activity hAPJ SPA EC50 IP
Protocol: The human APJ receptor was cloned by polymerase chain reaction and the gene encoding the receptor was subcloned in pFLAG-CMV™-3 expression vector (Sigma, Saint Louis, Mo. USA) in-house at Amgen. A GTPγS binding assay was performed on membranes prepared from CHO cells stably expressing human APJ receptor. The optimum experimental conditions for the concentrations of GDP, MgCl2, and NaCl in the assay buffer were initially determined. The assay was performed in assay buffer [20 mM HEPES, pH 7.5, 5 mM MgCl2, and 0.1% (w/v) BSA with 200 mM NaCl, 3 μM GDP] and membranes expressing human APJ receptor/well along with WGA PS beads. The reaction was initiated by addition of 0.2 nM [^35S]GTPγS (Perkin Elmer Life and Analytical Sciences, Waltham USA) in the absence or presence of various ligands and incubated at RT for 90 min. Nonspecific binding was determined in the presence of 100 μM GTPγS and was always less than 0.2% of total binding. All the results presented are means of several independent experiments and analyzed by non-linear regression methods using commercially available program Prism (GraphPad, San Diego, Calif.) to obtain EC50 detailed in Table 38.

Sequence of human APJ receptor (P35414 whole entry): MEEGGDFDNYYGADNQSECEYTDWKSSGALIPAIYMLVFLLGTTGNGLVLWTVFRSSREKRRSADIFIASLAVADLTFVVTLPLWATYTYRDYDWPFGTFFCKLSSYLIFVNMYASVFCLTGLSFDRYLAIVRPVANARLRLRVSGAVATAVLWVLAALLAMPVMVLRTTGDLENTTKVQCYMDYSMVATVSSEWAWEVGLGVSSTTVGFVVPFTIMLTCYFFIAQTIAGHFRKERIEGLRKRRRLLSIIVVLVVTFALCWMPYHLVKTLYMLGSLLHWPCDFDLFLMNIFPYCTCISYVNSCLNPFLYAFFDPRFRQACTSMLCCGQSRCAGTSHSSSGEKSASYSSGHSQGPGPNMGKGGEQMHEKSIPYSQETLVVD

**Q.** With COc1cccc(OC)c1-n1c(NS(=O)(=O)[C@@H](C)[C@H](OC)c2ncc(C)cn2)nnc1[C@@H]1CCNC1 (mixture of isomers) [Example 45.0, (1R,2S)-N-(4-(2,6-Dimethoxyphenyl)-5-((R)-pyrrolidin-3-yl)-4H-1,2,4-triazol-3-yl)-1-methoxy-1-(5-methylpyrimidin-2-yl)propane-2-sulfonamide and (1R,2S)-N-(4-(2,6-dimethoxyphenyl)-5-((S)-pyrrolidin-3-yl)-4H-1,2,4-triazol-3-yl)-1-methoxy-1-(5-methylpyrimidin-2-yl)propane-2-sulfonamide] as the molecule, how does the EC50 read?
**A.** 510 nM

**Q.** With COc1cccc(OC)c1-n1c(NS(=O)(=O)[C@@H](C)[C@H](C)c2ncc(C)cn2)nnc1[C@H]1CCCO1 (mixture of isomers) [Example 48.0, (2S,3R)-N-(4-(2,6-dimethoxyphenyl)-5-((R)-tetrahydrofuran-2-yl)-4H-1,2,4-triazol-3-yl)-3-(5-methylpyrimidin-2-yl)butane-2-sulfonamide and (2S,3R)-N-(4-(2,6-dimethoxyphenyl)-5-((S)-tetrahydrofuran-2-yl)-4H-1,2,4-triazol-3-yl)-3-(5-methylpyrimidin-2-yl)butane-2-sulfonamide] as the molecule, how does the EC50 read?
**A.** 3.9 nM

**Q.** Which EC50 does the source give for COc1cccc(OC)c1-n1c(NS(=O)(=O)[C@@H](C)[C@H](C)c2ncc(Cl)cn2)nnc1[C@H]1CCO1 (mixture of isomers) [Example 142.0, (2S,3R)-3-(5-chloropyrimidin-2-yl)-N-(4-(2,6-dimethoxyphenyl)-5-((R)-oxetan-2-yl)-4H-1,2,4-triazol-3-yl)butane-2-sulfonamide and (2S,3R)-3-(5-chloropyrimidin-2-yl)-N-(4-(2,6-dimethoxyphenyl)-5-((S)-oxetan-2-yl)-4H-1,2,4-triazol-3-yl)butane-2-sulfonamide] here?
**A.** 1.9 nM

**Q.** With COc1cccc(OC)c1-n1c(NS(=O)(=O)CCc2ccc(F)cc2C#N)nnc1[C@@H]1CCCO1 (mixture of isomers) [Example 146.0, (S)-2-(2-Cyano-4-fluorophenyl)-N-(4-(2,6-dimethoxyphenyl)-5-(tetrahydrofuran-2-yl)-4H-1,2,4-triazol-3-yl)ethanesulfonamide and (R)-2-(2-cyano-4-fluorophenyl)-N-(4-(2,6-dimethoxyphenyl)-5-(tetrahydrofuran-2-yl)-4H-1,2,4-triazol-3-yl)ethanesulfonamide] as the molecule, how does the EC50 read?
**A.** 450 nM

**Q.** Which EC50 does the source give for COc1cnc([C@@H](C)[C@H](C)S(=O)(=O)Nc2nnc([C@@H]3CC[C@H](C)O3)n2-c2c(OC)cccc2OC)nc1 (mixture of isomers) [Example 249.0, (2S,3R)-N-(4-(2,6-dimethoxyphenyl)-5-((2R,5R)-5-methyltetrahydro-2-furanyl)-4H-1,2,4-triazol-3-yl)-3-(5-methoxy-2-pyrimidinyl)-2-butanesulfonamide and (2S,3R)-N-(4-(2,6-dimethoxyphenyl)-5-((2S,5S)-5-methyltetrahydro-2-furanyl)-4H-1,2,4-triazol-3-yl)-3-(5-methoxy-2-pyrimidinyl)-2-butanesulfonamide] here?
**A.** 540 nM

**Q.** COCC1(n2c(NS(=O)(=O)[C@@H](C)[C@H](OC)c3ncc(Cl)cn3)nnc2[C@H]2CCOC2)CC1 (mixture of isomers) [Example 303.0, (1R,2S)-1-(5-chloro-2-pyrimidinyl)-1-methoxy-N-(4-(1-(methoxymethyl)cyclopropyl)-5-((3R)-tetrahydro-3-furanyl)-4H-1,2,4-triazol-3-yl)-2-propanesulfonamide and (1R,2S)-1-(5-chloro-2-pyrimidinyl)-1-methoxy-N-(4-(1-(methoxymethyl)cyclopropyl)-5-((3S)-tetrahydro-3-furanyl)-4H-1,2,4-triazol-3-yl)-2-propanesulfonamide] was tested. Which EC50 did it give?
**A.** 340 nM

**Q.** How did the EC50 turn out when COCC1(n2c(NS(=O)(=O)[C@@H](C)[C@H](OC)c3ncc(Cl)cn3)nnc2[C@H]2COCCO2)CC1 (mixture of isomers) [Example 304.0, (1R,2S)-N-(5-((S)-1,4-dioxan-2-yl)-4-(1-(methoxymethyl)cyclopropyl)-4H-1,2,4-triazol-3-yl)-1-(5-chloropyrimidin-2-yl)-1-methoxypropane-2-sulfonamide and (1R,2S)-N-(5-((R)-1,4-dioxan-2-yl)-4-(1-(methoxymethyl)cyclopropyl)-4H-1,2,4-triazol-3-yl)-1-(5-chloropyrimidin-2-yl)-1-methoxypropane-2-sulfonamide] was run?
**A.** 210 nM

**Q.** Which EC50 does the source give for COc1cccc(OC)c1-n1c(NS(=O)(=O)CCc2ncc(Cl)cn2)nnc1[C@@H]1COCCO1 (mixture of isomers) [Example 387.0, 2-(5-chloro-2-pyrimidinyl)-N-(4-(2,6-dimethoxyphenyl)-5-((2R)-1,4-dioxan-2-yl)-4H-1,2,4-triazol-3-yl)ethanesulfonamide and 2-(5-chloro-2-pyrimidinyl)-N-(4-(2,6-dimethoxyphenyl)-5-((2S)-1,4-dioxan-2-yl)-4H-1,2,4-triazol-3-yl)ethanesulfonamide] here?
**A.** 48 nM

**Q.** How did the EC50 turn out when COc1cccc(OC)c1-n1c(NS(=O)(=O)CCc2ccc(Cl)cc2)nnc1[C@@H]1CCCO1 (racemic) [Example 143.0, (S)-2-(4-Chlorophenyl)-N-(4-(2,6-dimethoxyphenyl)-5-(tetrahydrofuran-2-yl)-4H-1,2,4-triazol-3-yl)ethanesulfonamide and (R)-2-(4-chlorophenyl)-N-(4-(2,6-dimethoxyphenyl)-5-(tetrahydrofuran-2-yl)-4H-1,2,4-triazol-3-yl)ethanesulfonamide] was run?
**A.** 120 nM

**Q.** How did the EC50 turn out when CO[C@H]1CCC[C@@H](OC)[C@@H]1n1c(NS(=O)(=O)[C@@H](C)[C@H](C)c2ncc(C)cn2)nnc1[C@@H]1CCCO1 (single isomer, unassigned) [Example 3.0, (2S,3R)-N-(4-((1r,2R,6S)-2,6-Dimethoxycyclohexyl)-5-((2S)-tetrahydro-2-furanyl)-4H-1,2,4-triazol-3-yl)-3-(5-methyl-2-pyrimidinyl)-2-butanesulfonamide or (2S,3R)-N-(4-((1r,2R,6S)-2,6-dimethoxycyclohexyl)-5-((2R)-tetrahydro-2-furanyl)-4H-1,2,4-triazol-3-yl)-3-(5-methyl-2-pyrimidinyl)-2-butanesulfonamide] was run?
**A.** 1200 nM

**Q.** COc1cccc(OC)c1-n1c(NS(=O)(=O)CCc2ccc(Cl)cc2)nnc1[C@H]1CCOC1 (single isomer, unassigned) [Example 9.0, (R)-2-(4-Chlorophenyl)-N-(4-(2,6-dimethoxyphenyl)-5-(tetrahydrofuran-3-yl)-4H-1,2,4-triazol-3-yl)ethanesulfonamide or (S)-2-(4-chlorophenyl)-N-(4-(2,6-dimethoxyphenyl)-5-(tetrahydrofuran-3-yl)-4H-1,2,4-triazol-3-yl)ethanesulfonamide] was tested. Which EC50 did it give?
**A.** 210 nM

**Q.** For COc1cccc(OC)c1-n1c(NS(=O)(=O)[C@@H](C)[C@H](C)c2ncc(C#N)cn2)nnc1[C@@H]1CCCO1 (single isomer, unassigned) [Example 24.0, (2S,3R)-3-(5-Cyano-2-pyrimidinyl)-N-(4-(2,6-dimethoxyphenyl)-5-((2S)-tetrahydro-2-furanyl)-4H-1,2,4-triazol-3-yl)-2-butanesulfonamide or (2S,3R)-3-(5-cyano-2-pyrimidinyl)-N-(4-(2,6-dimethoxyphenyl)-5-((2R)-tetrahydro-2-furanyl)-4H-1,2,4-triazol-3-yl)-2-butanesulfonamide], which EC50 is on record?
**A.** 4.5 nM

**Q.** Which EC50 does the source give for COc1ncnc(OC)c1-n1c(NS(=O)(=O)[C@@H](C)[C@H](C)c2ccc(Cl)cn2)nnc1[C@@H]1CCOC1 (single isomer, unassigned) [Example 37.0, (2S,3R)-3-(5-chloro-2-pyridinyl)-N-(4-(4,6-dimethoxy-5-pyrimidinyl)-5-((3S)-tetrahydro-3-furanyl)-4H-1,2,4-triazol-3-yl)-2-butanesulfonamide or (2S,3R)-3-(5-chloro-2-pyridinyl)-N-(4-(4,6-dimethoxy-5-pyrimidinyl)-5-((3R)-tetrahydro-3-furanyl)-4H-1,2,4-triazol-3-yl)-2-butanesulfonamide] here?
**A.** 12 nM

**Q.** How did the EC50 turn out when COc1ncnc(OC)c1-n1c(NS(=O)(=O)[C@@H](C)[C@H](C)c2ccc(Cl)cn2)nnc1[C@H]1CCOC1 (single isomer, unassigned) [Example 38.0, (2S,3R)-3-(5-chloro-2-pyridinyl)-N-(4-(4,6-dimethoxy-5-pyrimidinyl)-5-((3R)-tetrahydro-3-furanyl)-4H-1,2,4-triazol-3-yl)-2-butanesulfonamide or (2S,3R)-3-(5-chloro-2-pyridinyl)-N-(4-(4,6-dimethoxy-5-pyrimidinyl)-5-((3S)-tetrahydro-3-furanyl)-4H-1,2,4-triazol-3-yl)-2-butanesulfonamide] was run?
**A.** 19 nM

**Q.** For COc1cccc(OC)c1-n1c(NS(=O)(=O)[C@@H](C)[C@H](C)c2ncc(Cl)cn2)nnc1[C@@H]1COCCO1 (single isomer, unassigned) [Example 39.0, (2S,3R)-3-(5-chloro-2-pyrimidinyl)-N-(4-(2,6-dimethoxyphenyl)-5-((2R)-1,4-dioxan-2-yl)-4H-1,2,4-triazol-3-yl)-2-butanesulfonamide or (2S,3R)-3-(5-chloro-2-pyrimidinyl)-N-(4-(2,6-dimethoxyphenyl)-5-((2S)-1,4-dioxan-2-yl)-4H-1,2,4-triazol-3-yl)-2-butanesulfonamide], which EC50 is on record?
**A.** 5.3 nM

— patent publication US10150760B2, “Compounds for use in preparing heterocyclic triazole agonists of the APJ receptor” (AMGEN INC., priority 2016, dated 2018)
